Assay results as given in ChEMBL document CHEMBL4627246, “Pyroglutamide-Based P2X7 Receptor Antagonists Targeting Inflammatory Bowel Disease” (J Med Chem, 2020).

Experiments:
Type in all cases: cell-based
[1] = system: HCT-116; assay: Cytotoxicity against human HCT116 cells assessed as effect on cell growth at 10 uM incubated for 48 hrs by sulforhodamine B assay; details: hct-116, 48 h
[2] = system: NCI-H322M; assay: Cytotoxicity against human NCI-H322M cells assessed as effect on cell growth at 10 uM incubated for 48 hrs by sulforhodamine B assay
[3] = system: UACC-62; assay: Cytotoxicity against human UACC62 cells assessed as effect on cell growth at 10 uM incubated for 48 hrs by sulforhodamine B assay; details: uacc-62, 48 h
[4] = system: MCF7; assay: Cytotoxicity against human MCF7 cells assessed as effect on cell growth at 10 uM incubated for 48 hrs by sulforhodamine B assay; details: mcf7, 48 h
[5] = system: PC-3; assay: Cytotoxicity against human PC3 cells assessed as effect on cell growth at 10 uM incubated for 48 hrs by sulforhodamine B assay; details: pc-3, 48 h
[6] = system: DU-145; assay: Cytotoxicity against human DU145 cells assessed as effect on cell growth at 10 uM incubated for 48 hrs by sulforhodamine B assay; details: du-145, 48 h
[7] = system: SK-MEL-5; assay: Cytotoxicity against human SK-MEL-5 cells assessed as effect on cell growth at 10 uM incubated for 48 hrs by sulforhodamine B assay; details: sk-mel-5, 48 h
[8] = system: Malme-3M; assay: Cytotoxicity against human MALME-3M cells assessed as effect on cell growth at 10 uM incubated for 48 hrs by sulforhodamine B assay
[9] = system: U-251; assay: Cytotoxicity against human U251 cells assessed as effect on cell growth at 10 uM incubated for 48 hrs by sulforhodamine B assay; details: u-251, 48 h
[10] = system: SF-268; assay: Cytotoxicity against human SF268 cells assessed as effect on cell growth at 10 uM incubated for 48 hrs by sulforhodamine B assay; details: sf-268, 48 h
[11] = system: MDA-MB-231; assay: Cytotoxicity against human MDA-MB-231 cells assessed as effect on cell growth at 10 uM incubated for 48 hrs by sulforhodamine B assay; details: mda-mb-231, 48 h
[12] = system: MDA-MB-468; assay: Cytotoxicity against human MDA-MB-468 cells assessed as effect on cell growth at 10 uM incubated for 48 hrs by sulforhodamine B assay; details: mda-mb-468, 48 h
[13] = system: EKVX; assay: Cytotoxicity against human EKVX cells assessed as effect on cell growth at 10 uM incubated for 48 hrs by sulforhodamine B assay
[14] = system: HOP-92; assay: Cytotoxicity against human HOP92 cells assessed as effect on cell growth at 10 uM incubated for 48 hrs by sulforhodamine B assay; details: hop-92, 48 h
[15] = system: 786-0; assay: Cytotoxicity against human 786-0 cells assessed as effect on cell growth at 10 uM incubated for 48 hrs by sulforhodamine B assay; details: 786-0, 48 h
[16] = system: NCI-H226; assay: Cytotoxicity against human NCI-H226 cells assessed as effect on cell growth at 10 uM incubated for 48 hrs by sulforhodamine B assay; details: nci-h226, 48 h
[17] = system: HCT-15; assay: Cytotoxicity against human HCT15 cells assessed as effect on cell growth at 10 uM incubated for 48 hrs by sulforhodamine B assay; details: hct-15, 48 h
[18] = system: M14; assay: Cytotoxicity against human M14 cells assessed as effect on cell growth at 10 uM incubated for 48 hrs by sulforhodamine B assay; details: m14, 48 h
[19] = system: OVCAR-5; assay: Cytotoxicity against human OVCAR5 cells assessed as effect on cell growth at 10 uM incubated for 48 hrs by sulforhodamine B assay; details: ovcar-5, 48 h
[20] = system: HL-60(TB); assay: Cytotoxicity against human HL-60(TB) cells assessed as effect on cell growth at 10 uM incubated for 48 hrs by sulforhodamine B assay

Measured: Activity

O=C(NCc1ccccc1Cl)[C@@H]1CCC(=O)N1c1ccccc1
Non-Toxic: [1] | [2] | [3] | [4] | [5] | [6] | [7] | [8] | [9] | [10] | [11] | [12] | [13] | [14] | [15] | [16] | [17] | [18] | [19] | [20]

O=C(NCCc1ccc(Cl)cc1Cl)[C@@H]1CCC(=O)N1c1ccccc1
Non-Toxic: [1] | [2] | [3] | [4] | [5] | [6] | [7] | [8] | [9] | [10] | [11] | [12] | [13] | [14] | [15] | [16] | [17] | [18] | [19] | [20]

CN(C)/C=C1\C[C@H]2C(=O)N(Cc3ccc(Cl)cc3Cl)C(N(C)C)N2C1=O (stereo not given in full)
Non-Toxic: [1] | [2] | [3] | [4] | [5] | [6] | [7] | [8] | [9] | [10] | [11] | [12] | [13] | [14] | [15] | [16] | [17] | [18] | [19] | [20]

CN(C)C(=O)[C@@H]1CCC(=O)N1
Non-Toxic: [1] | [2] | [3] | [4] | [5] | [6] | [7] | [8] | [9] | [10] | [11] | [12] | [13] | [14] | [15] | [16] | [17] | [18] | [19] | [20]

O=C(NCC1CCCCC1)[C@@H]1CCC(=O)N1c1ccccc1
Non-Toxic: [1] | [2] | [3] | [4] | [5] | [6] | [7] | [8] | [9] | [10] | [11] | [12] | [13] | [14] | [15] | [16] | [17] | [18] | [19] | [20]

O=C(NCc1ccc(Cl)cc1Cl)c1ccccn1
Non-Toxic: [1] | [2] | [3] | [4] | [5] | [6] | [7] | [8] | [9] | [10] | [11] | [12] | [13] | [14] | [15] | [16] | [17] | [18] | [19] | [20]

Cc1ccc(NC(=O)[C@@H]2CCC(=O)N2c2ccccc2)cc1
Non-Toxic: [1] | [2] | [3] | [4] | [5] | [6] | [7] | [8] | [9] | [10] | [11] | [12] | [13] | [14] | [15] | [16] | [17] | [18] | [19] | [20]

CN(C)/C=C1\C[C@@H](C(=O)NCc2ccc(Cl)cc2Cl)N(c2cccs2)C1=O
Non-Toxic: [1] | [2] | [3] | [4] | [5] | [6] | [7] | [8] | [9] | [10] | [11] | [12] | [13] | [14] | [15] | [16] | [17] | [18] | [19] | [20]
